# Reference: patent publication US20260000658A1, “METHODS FOR THE TREATMENT OF PROLIFERATIVE GLOMERULONEPHRITIS” (INSTITUT NATIONAL DE LA SANTÉ ET DE LA RECHERCHE MÉDICALE, priority 2022, published 2026)
# How the values were obtained:
# Format in all cases: in vivo, mouse
# [1] = tested on: uninephrectomized PIK3CA^Pod-HO mice; test: Uninephrectomized PIK3CA^Pod-HO mice, vehicle or alpelisib
# Source text: (§1) A. Urinary albumin to creatinine ratio of PIK3CAWT and PIK3CAPod-HO mice 2 weeks following uninephrectomy and treated either with vehicle or alpelisib (n=8-9 mice per group). B. Serum creatinine levels, C. blood urea nitrogen (BUN) levels of PIK3CAWT and PIK3CAPod-HO mice 2 weeks following uninephrectomy and treated either with vehicle or alpelisib (n=8-9 mice per group). D. Glomerular lesion score of PIK3CAWT and PIK3CAPod-HO mice 2 weeks following uninephrectomy and treated either with vehicle or alpelisib (n=8-9 mice per group). E. Trajectory of albumin to creatinine ratio in the urine of PIK3CAPod-HO mice following uninephrectomy and treated with either vehicle or alpelisib (n=8-9 mice per group).
# (§2) For the uninephrectomy experiments, the right kidneys were removed under anesthesia. For the medical treatment of mice, 50 mg kg −1 alpelisib (MedChem Tronica) in 1% carboxymethylcellulose (Sigma Aldrich)+0.5% Tween (Sigma Aldrich) or vehicle (1% carboxymethylcellulose+0.5% Tween) was administered by oral gavage daily for the indicated periods of time. Blood and urines were obtained at the indicated times. At euthanasia, blood, urines, kidneys were harvested. In some experiments, spleens, hearts, and bone marrow (BM) in femurs and tibias were harvested as well. Tissues were fixed in 4% paraformaldehyde and paraffin embedded for immunohistochemical analysis, snap-frozen in Optimal Cutting Temperature (OCT), or stored at −80° C. for mRNA or protein analysis.
# (§3) Mouse blood counts were analyzed using a hematology analyzer (ProCyte Dx; IDEXX Laboratories). Mouse serum creatinine, blood urea nitrogen, urinary albumin, and urinary creatinine were evaluated using an AU5800 (Beckman Coulter) autoanalyzer. Serum anti-dsDNA measurement was performed according to the manufacturer's instruction using mouse anti-dsDNA ELISA kit (LBIS). The absorbance was measured using Ininite M Nano (TECAN).
# (§4) 4-μm kidney sections were stained with periodic acid-Schiff (PAS), Masson's Trichrome (MT), Periodic acid metenamine silver (PAM) or Hematoxylin and Eosin (HE) staining for histological analysis. The degree of glomerular lesions was evaluated using the following scoring system: 0=no lesion, 1=affecting up to 25% of the glomerulus, 2=affecting 25-50% of the glomerulus, 3=affecting 50-75% of the glomerulus, and 4=affecting 75-100%. At least 50 glomeruli per sample were measured for each analysis. An indirect immunoperoxidase method was used for immunohistochemistry. Briefly, after deparaffinization, antigen retrieval was performed with citrate buffer (pH6) or Tris-EDTA buffer (pH9 or pH6) using microwave or high temperature (95° C.). Endogenous peroxidase activity was quenched using 3% hydrogen peroxide; nonspecific protein binding was blocked using 2.5% normal horse serum (Vector Laboratories), and endogenous biotin activity was quenched using the Avidin/Biotin Blocking Kit (Vector Laboratories). When using mouse primary antibodies on mouse tissue, Klear mouse blocking reagent (Diagomics) was used to block endogenous mouse immunoglobulins. After blocking, the tissue sections were incubated with the primary antibodies overnight at 4° C. The following primary antibodies were used: rabbit anti-Ki67 antibody (SP6; Thermo Fisher Scientific), rabbit anti-P-S6RP antibody (D68F8; Cell Signaling Technology), mouse anti-P-AKT (Ser473) antibody (587F11; Cell Signaling Technology), rabbit anti-P-AKT (Thr308) antibody (C31E5E; Cell Signaling Technology), mouse anti-S6RP antibody (54E2; Cell Signaling Technology), chicken anti-GFP antibody (Abcam), guinea pig anti-Nephrin antibody (GP-N2; Progen), rabbit anti-Podocin antibody (P0372; Sigma Aldrich), mouse anti-WTI antibody (6F-H2; DAKO). The corresponding secondary antibodies including anti-mouse IgG, anti-rabbit IgG, anti-guinea pig IgG, biotinylated anti-rabbit IgG (Vector Laboratories), and biotinylated anti-mouse IgG (Vector Laboratories) were applied. […]
# uninephrectomized mice = test: as above; conditions: PIK3CA^WT mice, 2 weeks treatment
# Source text: as §1, §2, §3, §4
# [2] = tested on: uninephrectomized Tg26^HE mice; test: Uninephrectomized Tg26^HE mice (accelerated collapsing glomerulopathy model), vehicle or alpelisib for 4 weeks
# Description: Scale bar P-S6RP, and P-AKTSer473 mean intensity quantification (n=5-6 mice per group). P. Serum creatinine level, and Blood urea nitrogen level of Tg26WT and Tg26HE mice at the time of sacrifice (4 weeks following uninephrectomy and treated either with vehicle or alpelisib) (n=8-9 mice per group)
# as §2, §3
# as §4, with “applied. For Avidin/Biotin detection, an R.T.U. Vectastain Kit (Vector Laboratories) or streptavidin (Thermo Fisher Scientific) was used. The immunoreactive antigens sites were detected with hydrogen peroxide and diaminobenzidine. For frozen immunofluorescent staining, frozen tissue sections (4 μm) were briefly air dried and fixed in 50% methanol/50% acetone.” for “applied.”
# [3] = 2 weeks after uninephrectomy, vs vehicle
smiles,measurement,setting,value
"Cc1nc(NC(=O)N2CCC[C@H]2C(N)=O)sc1-c1ccnc(C(C)(C)C(F)(F)F)c1 [alpelisib, Alpelisib]",expression of podocytes markers,[1]; [3],higher expression of podocytes markers
same,glomerular lesion score,[1]; [3],preserved glomerular
same,"kidney function (serum creatinine, BUN)",[1]; [3],better kidney function
same,podocyte AKT/mTOR pathway activation,[1]; [3],decreased podocyte AKT/mTOR pathway activation
same,tubular dilation,[1]; [3],fewer tubular dilation
same,proteinuria (urinary albumin to creatinine ratio),"[1]; nephrectomy at 8 weeks old, 2 weeks treatment",significantly decreased
same,kidney lesions (title of FIG. 2),[1]; uninephrectomized PIK3CAPod-HO mice,improves kidney lesions
same,phenotype of uninephrectomized PIK3CA^WT control mice,uninephrectomized mice,"no particular phenotype, without proteinuria or kidney dysfunction"
same,AKT/mTOR pathway in glomeruli,[2]; 4 weeks treatment,profoundly blunted
same,"expression of Col1a, Col3a and Lcn2",[2]; 4 weeks treatment,reduced expression
same,expression of podocyte markers,[2]; 4 weeks treatment,maintained expression of podocyte markers
same,"glomerular lesions, kidney histology",[2]; 4 weeks treatment,fewer glomerular lesions
same,ratio kidney/body weight,[2]; 4 weeks treatment,improved
same,albuminuria,"[2]; 4 weeks treatment, vs vehicle",significantly improved
same,"kidney function (serum creatinine, blood urea nitrogen)","[2]; 4 weeks treatment, vs vehicle",significantly improved
same,kidney lesions (title of FIG. 3),[2]; accelerated mouse model of collapsing glomerulopathy,improves kidney lesions
same,surfaces of the kidneys at sacrifice,"[2]; uninephrectomy at 4 weeks old, 4 weeks treatment",regular and smooth
